According to the supplement of paper PMC10307832:

Experiments:
Test in all cases: relative viability (nuclei count vs DMSO), 5 days (fraction); higher = more cells survive
XMD8-85 + Navitoclax = compound: CN1CCN(CC1)C2=CC(=C(C=C2)NC3=NC=C4C(=N3)N(C5=CC=CC=C5C(=O)N4C)C)OC [XMD8-85] + CC1(C)CCC(c2ccc(Cl)cc2)=C(CN2CCN(c3ccc(C(=O)NS(=O)(=O)c4ccc(N[C@H](CCN5CCOCC5)CSc5ccccc5)c(S(=O)(=O)C(F)(F)F)c4)cc3)CC2)C1 [Navitoclax] (partner 0.5 µM)
Procedure, shortened: (§1)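 Relative viability is defined as nuclei in treated wells over nuclei in vehicle wells. Duplicate plates were run and medians reported. Lung cancer cell lines in 1536-well plates were dosed by pin tool one day after seeding, with one drug or with a fixed anchor-drug dose plus five library-drug doses (not always all listed) in √10 steps, and nuclei were counted after 5 days.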

4EGI-1 + Phenformin = compound: O=C(O)C(Cc1ccccc1[N+](=O)[O-])=NNc1nc(-c2ccc(Cl)c(Cl)c2)cs1 (mixture of isomers) [4EGI-1] + N=C(N)NC(=N)NCCc1ccccc1 [Phenformin] (partner 250 µM)
Procedure, shortened: as §1

XMD8-85 = compound: CN1CCN(CC1)C2=CC(=C(C=C2)NC3=NC=C4C(=N3)N(C5=CC=CC=C5C(=O)N4C)C)OC [XMD8-85]
Procedure, shortened: (§2)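 A plate was accepted only when its control CV was below 25% and the cells had doubled at least once. Viability is defined from nuclear counts as treated wells divided by vehicle wells, with the median taken across plates. That median covers lung cancer cell lines grown in 1536-well plates, dosed by pinning at five √10-spaced library-drug concentrations, and counted in MetaXpress from 4× Hoechst images after 5 days.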

4EGI-1 = compound: O=C(O)C(Cc1ccccc1[N+](=O)[O-])=NNc1nc(-c2ccc(Cl)c(Cl)c2)cs1 (mixture of isomers) [4EGI-1]
Procedure, shortened: as §2

Cell Line | relative viability (XMD8-85 + Navitoclax; first compound 0.08 µM) | relative viability (XMD8-85 + Navitoclax; first compound 0.253 µM) | relative viability (XMD8-85 + Navitoclax; first compound 0.8 µM) | relative viability (XMD8-85 + Navitoclax; first compound 2.53 µM) | relative viability (XMD8-85 + Navitoclax; first compound 8 µM) | relative viability (4EGI-1 + Phenformin; first compound 0.5 µM) | relative viability (4EGI-1 + Phenformin; first compound 1.581 µM) | relative viability (4EGI-1 + Phenformin; first compound 5 µM) | relative viability (4EGI-1 + Phenformin; first compound 15.81 µM) | relative viability (4EGI-1 + Phenformin; first compound 50 µM) | relative viability (XMD8-85; 0.08 µM) | relative viability (XMD8-85; 0.253 µM) | relative viability (XMD8-85; 0.8 µM) | relative viability (XMD8-85; 2.53 µM) | relative viability (XMD8-85; 8 µM) | relative viability (4EGI-1; 0.5 µM) | relative viability (4EGI-1; 1.581 µM) | relative viability (4EGI-1; 5 µM) | relative viability (4EGI-1; 15.81 µM) | relative viability (4EGI-1; 50 µM)
NCI-H2170 | 0.62 | 0.682 | 0.64 | 0.675 | 0.666 | 0.419 | 0.452 | 0.426 | 0.333 | 0.274 | 1.03 | 1.09 | 1.01 | 1.12 | 0.993 | 0.986 | 0.942 | 0.992 | 0.853 | 0.606
NCI-H2228 | 0.893 | 0.929 | 0.619 | 0.81 | 0.353 | 0.314 | 0.313 | 0.379 | 0.298 | 0.141 | 0.894 | 1.06 | 1 | 0.995 | 0.604 | 1.26 | 1.25 | 0.939 | 0.951 | 0.294
NCI-H2347 | 0.757 | 0.852 | – | 0.809 | 0.63 | 0.614 | – | 0.379 | 0.363 | 0.344 | 1.03 | 0.973 | 1.04 | 1.03 | 0.809 | 1.14 | 0.965 | 1.02 | 1.03 | 0.823
NCI-H2405 | 0.877 | 1.09 | 1.08 | 0.662 | 0.427 | 0.419 | 0.338 | 0.421 | 0.409 | 0.409 | 1.02 | 1.06 | 1.06 | 1.01 | 0.781 | 1.04 | 0.819 | 1.08 | 1.03 | 0.984
NCI-H3122 | 1.08 | 1.01 | 1.09 | 1.06 | 1.1 | 0.372 | – | 0.378 | 0.33 | 0.169 | 1.09 | 0.965 | 1.08 | 0.972 | 0.967 | 0.987 | 0.918 | 0.969 | 0.964 | 0.683
PC-3 [JPC-3] | 0.796 | 0.785 | 0.861 | 0.966 | 0.769 | 0.484 | 0.486 | 0.476 | – | 0.431 | 1.06 | 1.03 | 0.993 | 1.11 | 0.942 | 1.01 | 0.991 | 1 | – | 0.691
PC-14 | 1.01 | 1.02 | 1.03 | 0.959 | 0.628 | 0.614 | – | 0.792 | 0.188 | 0.232 | 0.996 | 0.906 | 0.984 | 1.03 | 0.587 | 1.01 | – | 1.05 | 0.341 | 0.395
RERF-LC-KJ | 0.712 | 0.96 | 0.982 | 1.03 | 0.565 | 0.412 | – | 0.442 | 0.354 | 0.333 | 0.992 | 0.939 | 1.07 | 1.13 | 0.82 | 1.1 | 0.629 | 0.936 | 0.805 | 0.637
SK-LU-1 | 0.839 | 0.795 | 1.1 | 0.888 | 0.293 | 0.653 | 0.546 | 0.681 | 0.632 | 0.264 | 0.921 | 1.07 | 1.08 | 1.06 | 0.96 | 1.12 | 1.11 | 1.14 | 0.998 | 0.58
SK-MES-1 | 1.22 | 1.33 | 1.06 | 1.19 | 0.866 | 0.687 | 0.614 | 0.725 | 0.618 | 0.381 | 1.03 | 1.03 | 0.938 | 0.951 | 0.556 | 1.09 | 0.944 | 0.983 | 0.759 | 0.691
SW 1573 | 1.13 | 1.02 | 0.896 | 0.801 | 0.545 | 0.457 | 0.388 | 0.403 | 0.276 | 0.114 | 1.02 | 1.1 | 1.08 | 0.982 | – | 1.24 | 0.862 | 1.03 | 0.673 | 0.445
UMC-11 | 0.356 | 0.312 | 0.322 | 0.301 | 0.234 | 0.384 | 0.365 | 0.334 | 0.28 | 0.237 | 1.03 | 0.982 | 1.11 | 0.964 | 0.739 | 1.13 | 1.11 | 1.01 | 0.986 | 0.403
